According to publication PMC3050082 (Journal of medicinal chemistry, 2010):
Where two headings read alike, the source gives them in different places.

How the values were obtained:
HIV-1 IIIB [1] = conditions: cited from earlier work
TZM-bl cell line = conditions: cited from earlier work
MT-2 cells = conditions: cited from earlier work
HIV-1 RTMDR = test: Multi-RTI-resistant HIV-1 RTMDR infection in TZM-bl cell line; type: cell-based; conditions: Human immunodeficiency virus 1, TZM-bl
HIV-1 NL4-3 [2] = conditions: NL4-3 in TZM-bl cell line; starred compounds, data were reported in ref [11]; cited from earlier work
HIV-1 IIIB [3] = test: Inhibition of HIV-1 IIIB replication in MT-2 cells; type: cell-based; conditions: Human immunodeficiency virus 1, IIIB
HIV-1 NL4-3 [4] = test: in vitro; type: cell-based; conditions: for EC50: Human immunodeficiency virus 1, NL43, TZM-bl
HIV-1 A17 (K103N/Y181C) = test: Multi-RTI-resistant HIV-1 A17 replication in MT-2 cells; type: cell-based; conditions: Human immunodeficiency virus 1, MT2
[5] = IIIB in MT-2 cell line, starred compounds, data were reported in ref [11]
[6] = TZM-bl cell line, XTT assay, starred compounds, data were reported in ref [11]
[7] = MT-2 cell line, XTT assay, starred compounds, data were reported in ref [11]

Compound: Cc1cc(I)cc(C)c1Oc1ccc([N+](=O)[O-])c(Nc2ccc(C#N)cc2)n1 [11a, N^2-(4′-Cyanophenyl)-6-(2″,6″-dimethyl-4″-iodo)phenoxy-3-nitropyridin-2-amine]
- EC50 (HIV-1 IIIB [1]; [5]): 79 ± 2 nM
- SI (selective index = CC50/EC50) (HIV-1 IIIB [1]; [5]): 283
- CC50 (TZM-bl cell line; [6]): > 41200 nM
- CC50 (MT-2 cells; [7]): 22900 nM
- EC50 (HIV-1 RTMDR): 94.3 ± 9 nM
- EC50 (HIV-1 NL4-3 [2]): 60.7 ± 24 nM
- SI (selective index = CC50/EC50) (HIV-1 NL4-3 [2]): >675

Compound: Cc1cc(C#CC(C)(C)O)cc(C)c1Oc1ccc([N+](=O)[O-])c(Nc2ccc(C#N)cc2)n1 [11d, N-(4′-Cyanophenyl)-6-[2″,6″-dimethyl-4″-(3-methylbut-3-ol-1-yn)phenoxy]-3-nitropyridin-2-amine]
- SI (selective index = CC50/EC50) (HIV-1 IIIB [1]): 2.61
- CC50 (TZM-bl cell line): 45200 nM
- CC50 (MT-2 cells): 23300 nM
- SI (selective index = CC50/EC50) (HIV-1 NL4-3 [2]): 1.09

Compound: Cc1cc(C#CC2CC2)cc(C)c1Oc1ccc([N+](=O)[O-])c(Nc2ccc(C#N)cc2)n1 [11e, N-(4′-Cyanophenyl)-6-[4″-(2-cyclopropylethynyl)-2″,6″-dimethyl]phenoxy-3-nitro-pyridin-2-amine]
- EC50 (HIV-1 IIIB [3]; MT2, IIIB in MT-2 cell line): > 3000 nM

Compound: C#Cc1cc(C)c(Oc2ccc([N+](=O)[O-])c(Nc3ccc(C#N)cc3)n2)c(C)c1 [11f, N^2-(4′-Cyanophenyl)-6-(2″,6″-dimethyl-4″-ethynyl)phenoxy-3-nitropyridin-2-amine]
- EC50 (HIV-1 IIIB [1]; [5]): 247 ± 40 nM
- SI (selective index = CC50/EC50) (HIV-1 IIIB [1]; [5]): >405
- CC50 (TZM-bl cell line; [6]): > 52100 nM
- CC50 (MT-2 cells; [7]): > 100000 nM
- EC50 (HIV-1 RTMDR): 215 ± 33 nM
- EC50 (HIV-1 NL4-3 [2]): 111 ± 86 nM
- SI (selective index = CC50/EC50) (HIV-1 NL4-3 [2]): >469

Compound: Cc1cc(/C=C/C#N)cc(C)c1Oc1ccc([N+](=O)[O-])c(Nc2ccc(C#N)cc2)n1 [11m, (E)-N-(4′-Cyanophenyl)-6-(4″-cyanovinyl-2″,6″-dimethyl)phenoxy-3-nitropyridin-2-amine]
- EC50 (HIV-1 RTMDR): 14.8 ± 2.4 nM

Compound: Cc1cc(/C=C/C#N)cc(C)c1Oc1ccc([N+](=O)[O-])c(Nc2ccc(C#N)cc2)c1 [12c, (E)-N^2-(4′-Cyanophenyl)-4-(4″-cyanovinyl-2″,6″-dimethyl)phenoxy-1-nitroaniline]
- selectivity ratio (HIV-1 NL4-3 [4]; human): > 4690

Compound: Cc1cc(I)cc(C)c1Oc1ccc(N)c(Nc2ccc(C#N)cc2)n1 [13a, N^2-(4′-Cyanophenyl)-6-(2″,6″-dimethyl-4″-iodo)phenoxypyridin-2,3-diamine]
- EC50 (HIV-1 IIIB [1]; [5]): 54 ± 4 nM
- SI (selective index = CC50/EC50) (HIV-1 IIIB [1]; [5]): 134
- CC50 (TZM-bl cell line; [6]): 16700 nM
- CC50 (MT-2 cells; [7]): 7240 nM
- EC50 (HIV-1 RTMDR): 5.13 ± 1.15 nM
- EC50 (HIV-1 NL4-3 [2]): 7.6 ± 2.3 nM
- SI (selective index = CC50/EC50) (HIV-1 NL4-3 [2]): 2200

Compound: C=CCc1cc(C)c(Oc2ccc(N)c(Nc3ccc(C#N)cc3)n2)c(C)c1 [13c, 6-(4″-Allyl-2″,6″-dimethyl)phenoxy-N^2-(4′-cyanophenyl)pyridin-2,3-diamine]
- EC50 (HIV-1 RTMDR): 15.4 ± 1.6 nM

Compound: Cc1cc(C#CC(C)(C)O)cc(C)c1Oc1ccc(N)c(Nc2ccc(C#N)cc2)n1 [13d, N^2-(4′-Cyanophenyl)-6-[2″,6″-dimethyl-4″-(3-methylbut-3-ol-1-yn)phenoxy]pyridin-2,3-di amine]
- EC50 (HIV-1 IIIB [1]; [5]): 1580 ± 97 nM
- SI (selective index = CC50/EC50) (HIV-1 IIIB [1]): 2.25
- CC50 (TZM-bl cell line): 8730 nM
- CC50 (MT-2 cells): 3540 nM
- EC50 (HIV-1 NL4-3 [2]): 241 ± 14.7 nM
- SI (selective index = CC50/EC50) (HIV-1 NL4-3 [2]): 36

Compound: Cc1cc(C#CC2CC2)cc(C)c1Oc1ccc(N)c(Nc2ccc(C#N)cc2)n1 [13e, N^2-(4′-Cyanophenyl)-6-[4″-(2-cyclopropylethynyl)-2″,6″-dimethylphenoxy]pyridin-2,3-diamine]
- EC50 (HIV-1 A17 (K103N/Y181C)): > 10000 nM
- EC50 (HIV-1 RTMDR): 121 ± 17.7 nM

Compound: C#Cc1cc(C)c(Oc2ccc(N)c(Nc3ccc(C#N)cc3)n2)c(C)c1 [13f, N^2-(4′-Cyanophenyl)-6-(2″,6″-dimethyl-4″-ethynyl)phenoxypyridin-2,3-diamine]
- EC50 (HIV-1 A17 (K103N/Y181C)): 1430 ± 260 nM
- SI (selective index = CC50/EC50) (HIV-1 IIIB [1]; [5]): 221
- CC50 (TZM-bl cell line; [6]): 9940 nM
- CC50 (MT-2 cells; [7]): 9280 nM
- EC50 (HIV-1 RTMDR): 9 ± 2 nM
- EC50 (HIV-1 NL4-3 [2]): 6.7 ± 1 nM
- SI (selective index = CC50/EC50) (HIV-1 NL4-3 [2]): 1484

Compound: CC(=O)CCc1cc(C)c(Oc2ccc(N)c(Nc3ccc(C#N)cc3)n2)c(C)c1 [13k, 6-[(4″-Butan-2-one)-2″,6″-dimethyl]phenoxy-N^2-(4′-cyanophenyl)pyridin-2,3-diamine]
- EC50 (HIV-1 A17 (K103N/Y181C)): 730 ± 58 nM
- EC50 (HIV-1 RTMDR): 3.2 ± 0.8 nM

Compound: Cc1cc(/C=C/C#N)cc(C)c1Oc1ccc(N)c(Nc2ccc(C#N)cc2)n1 [13m, (E)-N^2-(4′-Cyanophenyl)-6-(4″-cyanovinyl-2″,6″-dimethyl)phenoxypyridin-2,3-diamine]
- EC50 (HIV-1 A17 (K103N/Y181C)): 200 ± 10 nM
- EC50 (HIV-1 RTMDR): 0.59 ± 0.09 nM

Compound: Cc1cc(C#N)cc(C)c1Oc1ccc(N)c(Nc2ccc(C#N)cc2)n1 [compound 3, reference compound]
- EC50 (HIV-1 RTMDR): 0.96 ± 0.3 nM
- EC50 (HIV-1 NL4-3 [4]; NL4-3 in TZM-bl cell line): 0.68 ± 0.03 nM

Compound: N#Cc1ccc(Nc2cc(Oc3ccc4cc(C#N)ccc4c3)c([N+](=O)[O-])cc2[N+](=O)[O-])cc1 [compound 17, 5-(6-Cyano-2-naphthoxy)-N^1-(4′-cyanophenyl)-2,4-dinitroaniline]
- EC50 (HIV-1 IIIB [3]; MT2): > 100 nM
- EC50 (HIV-1 NL4-3 [4]): > 100 nM

Compound: N#Cc1ccc(Nc2cc(Oc3ccc4cc(C#N)ccc4c3)c([N+](=O)[O-])cc2N)cc1 [compound 19, 4-(6-Cyano-2-naphthoxy)-N^2-(4′-cyanophenyl)-5-nitrobenzene-1,2-diamine]
- EC50 (HIV-1 IIIB [3]; MT2, IIIB in MT-2 cell line): > 100 nM
- EC50 (HIV-1 NL4-3 [4]; NL4-3 in TZM-bl cell line): > 100 nM

Compound: N#Cc1ccc(Nc2cc([N+](=O)[O-])c(Oc3ccc4cc(C#N)ccc4c3Br)cc2N)cc1 [compound 20, 4-(1-Bromo-6-cyano-2-naphthoxy)-N^1-(4′-cyanophenyl)-5-nitrobenzene-1,2-diamine]
- EC50 (HIV-1 IIIB [3]; MT2, IIIB in MT-2 cell line): > 100 nM
- EC50 (HIV-1 NL4-3 [4]; NL4-3 in TZM-bl cell line): > 100 nM
